Measured values: US20260137706A1, “METHODS OF TREATING INFLAMMATORY DISEASES” (INTERLINE THERAPEUTICS, INC., priority 2023, published 2026)
pIC50: −log10 of the molar value.

Tests used:
[1] = target: T1, binding of His-XIAP(BIR2)-avi fusion protein to GST-RIPK2 fusion protein (RIPK2/XIAP) (Homo sapiens, UniProt O43353); assay: RIPK2-XIAP binding competition PPI assay (TR-FRET); conditions: RIPK2/XIAP binding competition PPI assay; for Emax: Amax, read-out: PPI Amax bin; for pIC50: read-out: PPI IC50 bin
T1 construct: made in house; host or cells: baculovirus infected Sf9 cells
T1 sequence (O43353 1-310 limits assumed): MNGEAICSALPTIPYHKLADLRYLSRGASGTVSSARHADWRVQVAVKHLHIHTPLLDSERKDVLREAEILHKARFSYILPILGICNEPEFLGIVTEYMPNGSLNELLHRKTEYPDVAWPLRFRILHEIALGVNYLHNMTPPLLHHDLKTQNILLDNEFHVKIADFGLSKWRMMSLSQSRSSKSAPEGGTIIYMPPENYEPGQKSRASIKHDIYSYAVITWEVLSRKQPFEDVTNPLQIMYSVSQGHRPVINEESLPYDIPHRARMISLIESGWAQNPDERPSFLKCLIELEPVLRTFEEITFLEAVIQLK
Excerpt: The ability of selected compounds of Formula (I) to inhibit the binding of an His-XIAP(BIR2)-avi fusion protein to a GST-RIPK2 fusion protein was quantified employing the TR-FRET-based competition assay as described in the following paragraphs.
Recombinant fusion protein of N-terminal Glutathione-S-Transferase (GST) and a fragment of human RIPK2 (amino acids 1-310 of accession number 043353), expressed in baculovirus infected Sf9 cells, purified via glutathione affinity chromatography, was used as GST-RIPK2 fusion protein. Recombinant fusion protein of N-terminal 6×Histidine (His), a fragment of human XIAP (amino acids 152-231 of accession number P98170), and C-terminal avi tag, expressed in baculovirus infected Sf9 cells, purified via Nickel NTA affinity chromatography, was used as the His-XIAP(BIR2)-avi fusion protein.
For the assay, a working solution of 1 nM GST-RIPK2, 25 nM His-XIAP(BIR2)-avi, 6 nM Anti-His-XL665 […] (Revvity Catalogue No. 61HISXLB), and 0.5 nM Anti-GST-Tb (Revvity Catalogue No. 61GSTTLB) in 25 mM Tris-HCl 7.5, 0.5 mM ethylene glycol-bis(2-aminoethylether)-N,N,N′,N′-tetraacetic acid (EGTA), 10 mM magnesium chloride (MgCl2), 2.5 mM dithiothreitol (DTT), 0.01% (w/v) bovine serum albumin (BSA), 0.005% (w/v) Pluronic F-127 (Sigma), 0.5 mM sodium ortho-vanadate, 5 mM β-Glycerophosphate disodium salt hydrate (BGP) was prepared. 50 nL of a 100-fold concentrated solution of each test compound in DMSO was dispensed via acoustic dispensing into a white low volume 384-well microtiter plate (Perkin Elmer Catalogue No. 6008280). Subsequently, 5 μL of the assay working solution were added.
The resulting mixture was incubated 120 min at 23° C. Subsequently, the amount of complex formed by the GST-RIPK2, XIAP(BIR2)-avi, Anti-His-XL665, and Anti-GST-Tb was evaluated by measurement of the resonance energy transfer from the Tb-cryptate to the XL665. Therefore, the fluorescence emissions at 520 nm and 665 nm after excitation at 337 nm were measured in a TR-FRET reader, e.g. a Pherastar FS (BMG Labtechnologies, Offenburg, Germany) or an Envision (PerkinElmer). The ratio of the emissions at 665 nm and at 520 nm was taken as the measure of the amount of the complex. The data were normalized (assay reaction without inhibitor=0% activity, 50 nM of GSK583=−100% activity).
For the RIPK2/XIAP binding competition PPI assay Amax values, “A” denotes an Amax of ≥80%; “B” denotes an Amax of 80%>B≥55; “C” denotes an Amax of 55%>C>30; and “D” denotes an Amax of ≤30%.

[2] = system: NF-κB pathway (SEAP) in THP1-Dual cells; assay: THP-1 Dual cell SEAP assay (L18-MDP stimulated); type: cell-based; conditions: Homo sapiens, THP1-Dual, read-out: NF-κB THP1 IC50 bin
Experimental: THP1-Dual™ cells (InvivoGen Cat #thpd-nfis) allow simultaneous assessment of the NF-κB pathway, by monitoring the activity of secreted embryonic alkaline phosphatase (SEAP) as well as the IRF pathway, by assessing the activity of a secreted luciferase (Lucia). Cells were cultured according to manufacturers' recommendations. For the assay, cell concentration was adjusted to 7.14×10^5 cells/mL in assay media (RPMI 1640, 2 mM L-Glutamine, 25 mM HEPES, 10% fetal bovine serum (heat-inactivated for 30 min at 56° C.), Pen-Strep (100 U/mL)) and 35 µL of cell suspension (˜25,000 cells) per well were added to a flat bottom 384-well plate (white opaque). Plate was centrifuged at 300 g for 2 min, compounds were added in serial dilution series according to the plate layout (volumes ˜500 nL-0.0152 nL) and plate was incubated at 37° C. in 5% CO2 for 30 min. Using assay media, a L18-MDP stock solution, that results in a final concentration of 10 ng/mL L18-MDP in each well when adding 15 μL to each well, was prepared. 15 μL of L18-MDP stock solution was added to each well, while 15 μL of assay media was added to the negative control wells. Plates were subsequently incubated at 37° C. in 5% CO2 overnight (20-24 h).
For the SEAP assay: without disturbing the cells at the bottom of the well, 15 μL supernatant was transferred to a clear 384-well flat bottom plate and 35 μL QUANTI-Blue Solution per well was added. Following a 2 h incubation at 37° C., the optical density (OD) was measured at 620-655 nm using a microplate reader (PheraStar FS microplate reader with protocol for OD 620-655 nm).
Values of media-only wells were subtracted and % inhibition for each compound concentration relative to the DMSO/L18-MDP-treated controls was calculated. Inhibition values+/−SD were fitted by non-linear regression using Prism software (GraphPad PRISM Software) to calculate IC50 values.

[3] = target: T2, GST-RIPK2 fusion protein (human RIPK2, amino acids 1-310) (Homo sapiens, UniProt O43353); assay: RIPK2 binding competition assay (TR-FRET, Tracer 199 displacement); conditions: 10 nM Tracer 199, 1 nM GST-RIPK2, read-out: RIPK2 IC50
T2 construct: made in house; host or cells: baculovirus infected Sf9 cells
T2 sequence (O43353 1-310): as the sequence (O43353 1-310 limits assumed) above
Excerpt: The ability of selected compounds of Formula (I) to inhibit the binding of an Alexa647-labelled ATP-competitive kinase inhibitor to a GST-RIPK2 fusion protein was quantified employing the TR-FRET-based RIPK2 binding competition assay as described in the following paragraphs.
Recombinant fusion protein of N-terminal Glutathione-S-Transferase (GST) and a fragment of human RIPK2 (amino acids 1-310 of accession number 043353), expressed in baculovirus infected Sf9 cells, purified via glutathione affinity chromatography, was used as GST-RIPK2 fusion protein. Tracer 199 from Life Technologies (catalogue no. PR9115B) was used as Alexa647-labelled ATP-competitive kinase inhibitor.
For the assay, 50 nL of a 100-fold concentrated solution of each test compound in DMSO was pipetted into either a black low volume 384-well microtiter plate or a black 1536-well microtiter plate (both Greiner Bio-One, Frickenhausen, Germany), 3 μL solution of Tracer 199 (16.7 nM=>final concentration in 5 μL assay volume is 10 nM) in aqueous assay buffer (25 mM Tris/HCl pH 7.5, 10 mM magnesium chloride (MgCl2), 5 mM β-glycerophosphate, 2.5 mM dithiothreitol (DTT), 0.5 mM ethylene glycol-bis(2-aminoethylether)-N,N,N′,N′-tetraacetic acid (EGTA), 0.5 mM sodium ortho-vanadate, 0.01% (w/v) bovine serum albumin (BSA), 0.005% (w/v) Pluronic F-127 (Sigma)) were added. Then the binding competition was started by the addition of 2 μL of a solution of the GST-RIPK2 fusion protein (2.5 nM=>final conc. in the 5 μL assay volume is 1 nM) and of Anti-GST-Tb (1.25 nM=>final conc. in the 5 μL assay volume is 0.5 nM), a Lumi4®—Tb cryptate-conjugated anti-GST antibody from PerkinElmer (catalogue no 61GSTTAH), in assay buffer.
The resulting mixture was incubated 45 min at 22° C. to allow the formation of a complex between the Tracer 199, the fusion protein and Anti-GST-Tb. Subsequently, the amount of this complex was evaluated by measurement of the resonance energy transfer from the Tb-cryptate to the Tracer 199. Therefore, the fluorescence emissions at 620 nm and 665 nm after excitation at 337 nm were measured in a TR-FRET reader, e.g. a Pherastar FS (BMG Labtechnologies, Offenburg, Germany) or a Viewlux (PerkinElmer). The ratio of the emissions at 665 nm and at 620 nm was taken as the measure of the amount of the complex. The data were normalized (assay reaction without inhibitor=0% activity, all other assay components but no GST-RIPK2 fusion protein=−100% activity).
Table A1 below lists IC50 values of selected compounds of Formula (I) measured in the RIPK2 binding competition assay.

Compound | Emax [1] [%] | pIC50 [1] | pIC50 [2] | pIC50 [3]
CC(CO)COc1cc2ncc(-c3cc(F)c(N)nc3F)n2cc1S(=O)(=O)C(C)(C)C (racemic) [Example 174, 3-((3-(6-amino-2,5-difluoropyridin-3-yl)-6-(tert-butylsulfonyl)imidazo[1,2-a]pyridin-7-yl)oxy)-2-methylpropan-1-ol] | > 80 | 8.60 to 9.00 | 6.60 to 7.30 | 8.60 to 9.00
CC(C)(C)C(C)(O)c1cn2c(-c3cc(F)c(N)nc3F)cnc2cc1OCCO (single isomer, unassigned) [Example 295] | > 80 | 7.70 to 8.60 | < 6.00 | 7.70 to 8.60
COc1cc2ncc(-c3cc(F)nc(NCCCO)c3)n2cc1C(F)(F)F [Example 1, 3-((6-Fluoro-4-(7-methoxy-6-(trifluoromethyl)imidazo[1,2-a]pyridin-3-yl)pyridin-2-yl)amino)propan-1-ol] | < 30 | < 7.70 | 6.60 to 7.30 | 7.70 to 8.60
COc1cc2ncc(-c3cc(N)nc(F)c3)n2cc1C(F)(F)F [Example 2, 6-fluoro-4-(7-methoxy-6-(trifluoromethyl)imidazo[1,2-a]pyridin-3-yl)pyridin-2-amine] | < 30 | < 7.70 | 6.60 to 7.30 | 7.70 to 8.60
Nc1cc(-c2cnn3ccc(C(F)(F)F)cc23)cc(F)n1 [Example 3, 6-fluoro-4-(5-(trifluoromethyl)pyrazolo[1,5-a]pyridin-3-yl)pyridin-2-amine] | < 30 | < 7.70 | 6.00 to 6.60 | < 7.70
Nc1cc(-c2cnc3ccc(C(F)(F)F)cn23)cc(F)n1 [Example 4, 6-fluoro-4-(6-(trifluoromethyl)imidazo[1,2-a]pyridin-3-yl)pyridin-2-amine] | < 30 | < 7.70 | 6.00 to 6.60 | < 7.70
OCCCNc1cc(-c2cnc3ccc(C(F)(F)F)cn23)cc(F)n1 [Example 5, 3-((6-fluoro-4-(6-(trifluoromethyl)imidazo[1,2-a]pyridin-3-yl)pyridin-2-yl)amino)propan-1-ol] | < 30 | < 7.70 | 6.00 to 6.60 | < 7.70
OCCCNc1cc(-c2cnn3ccc(C(F)(F)F)cc23)cc(F)n1 [Example 6, 3-((6-fluoro-4-(5-(trifluoromethyl)pyrazolo[1,5-a]pyridin-3-yl)pyridin-2-yl)amino)propan-1-ol] | < 30 | < 7.70 | 6.60 to 7.30 | 7.70 to 8.60
COc1cc2ncc(-c3cc(N)cc4[nH]ncc34)n2cc1S(=O)(=O)C(C)(C)C [Example 7, 4-[7-Methoxy-6-(2-methylpropane-2-sulfonyl)imidazo[1,2-a]pyridin-3-yl]-1H-indazol-6-amine] | 30 to 55 | < 7.70 | < 6.00 | < 7.70
COc1cc2ncc(-c3ccc(NC(C)=O)nc3)n2cc1S(=O)(=O)C(C)(C)C [Example 8, N-(5-(6-(tert-butylsulfonyl)-7-methoxyimidazo[1,2-a]pyridin-3-yl)pyridin-2-yl)acetamide] | < 30 | < 7.70 | < 6.00 | < 7.70
COC(=O)Nc1ccc(-c2cnc3cc(OC)c(S(=O)(=O)C(C)(C)C)cn23)cn1 [Example 9, methyl (5-(6-(tert-butylsulfonyl)-7-methoxyimidazo[1,2-a]pyridin-3-yl)pyridin-2-yl)carbamate] | < 30 | < 7.70 | < 6.00 | < 7.70
COc1cc2nc(Cl)c(-c3ccc(N)nc3F)n2cc1S(=O)(=O)C(C)(C)C [Example 10, 5-(6-(tert-butylsulfonyl)-2-chloro-7-methoxyimidazo[1,2-a]pyridin-3-yl)-6-fluoropyridin-2-amine] | > 80 | < 7.70 |  | < 7.70
CC(C)(C)C(C)(O)c1cn2c(-c3cc(F)c(N)nc3F)cnc2cc1OCCO (stereo not shown) [Example 193, 2-(3-(6-amino-2,5-difluoropyridin-3-yl)-7-(2-hydroxyethoxy)imidazo[1,2-a]pyridin-6-yl)-3,3-dimethylbutan-2-ol] | > 80 |  |  | 7.70 to 8.60
COc1cc2ncc(-c3cc(F)c(OC)c(NCc4cnn(C)c4)c3)n2cc1S(=O)(=O)C(C)(C)C [Example 301, 5-(6-(tert-butylsulfonyl)-7-methoxyimidazo[1,2-a]pyridin-3-yl)-3-fluoro-2-methoxy-N-((1-methyl-1H-pyrazol-4-yl)methyl)aniline] | 55 to 80 | > 9.00 | 6.60 to 7.30 | 
